Data taken from patent US20260007639A1, “COMPOUNDS FOR THE TREATMENT OF NEUROMUSCULAR DISORDERS” (NMD PHARMA A/S, priority 2017, published 2026).
Read-outs that look alike come from different tables or passages of the source.

Tests used:
rat soleus muscles [1] = assay: Mg2+ concentration required to depress nerve-stimulated force by 50% (Kd,Mg2+), combination with 3,4-AP (Table 5); settings: pre-incubation with 10 μM 3,4-AP
Protocol: Muscles from 4-week-old rats were stimulated to contract by activating the motor nerve with short duration pulses in field stimulation. Muscles contracted every 10 min for 2 s in response to 30 Hz stimulation. Four different experimental conditions were used. […] FIG. 6C similar to FIG. 6A but this muscle had been pre-incubated with 3,4-AP. […] The force integral (AUC) was determined at each extracellular Mg^2+ concentration. AUC was plotted against Mg^2+ concentration and the data was fitted to a sigmoidal function. This provided the extracellular Mg^2+ concentration that was required to reduce the nerve-stimulated force to 50% (Mg50) under the four different conditions (see Table 4).
While the use of tubocurarine mimics conditions with reduced neuromuscular transmission due to post-synaptic dysfunction (myasthenia gravis, neuromuscular blockade), the experiments with elevated extracellular Mg^2+ mimics conditions with pre-synaptic dysfunction akin to a range of neuromuscular disorders including Lambert Eaton syndrome, motor neuron disorders and polyneuropathy. […] Based on this it was determined whether recovery of nerve-stimulated force at elevated extracellular Mg^2+ with CIC-1 inhibiting compounds could be added to force recovery with 3,4-AP. […] To quantify the effect of compounds on Mg^2+ sensitivity the force at the different Mg^2+ concentrations was determined. […]

rat soleus muscles [2] = assay: Recovery of nerve-stimulated force in isolated rat soleus muscles exposed to sub-maximal tubocurarine (Table 1); settings: % change in AUC compared to AUC before addition, after 40 min in tubocurarine
Protocol: The motor nerve was stimulated every 10 min for 2 s with 30 Hz with field stimulation using short duration pulses. […] Traces are shown before addition tubocurarine, after 40 min with tubocurarine, and after 110 min tubocurarine. […] This recovery of force was used in Table 1.
Experiments were performed using rat soleus muscles from either young (4-wk-old) or adult Wistar rats (12-14-week-old). Animal handling, killing and isolation of muscle is described elsewhere All experiments were performed using normal Krebs-Ringer bicarbonate solution (NKR). In solutions with elevated Mg^2+, MgCl^2 was added to NKR-solution causing minor increases in osmolarity and ionic strength. In solutions with elevated K^+, 4 mM NaCl was replaced by 4 mM KCl in the NKR.
In all contraction experiments, isometric force production was determined and force produced during contractions was quantified by measuring the integral of the force response (AUC). Stimulation and force recordings have been described elsewhere. […] In these latter experiments, extracellular recordings of action potentials (M-waves) could be measured without temporal overlap with stimulation artefacts.
The aim was to find compounds that by inhibition of CIC-1 channels can recover nerve-stimulated force under conditions of fatigue including conditions where fatigue is caused by compromised neuromuscular transmission. Neuromuscular transmission dysfunction can develop because of both pre- and/or post-synaptic complications in connection with a disorder or as part of neuromuscular blockade during/after surgery. In the initial series of drug testing, experiments were performed with isolated muscles in the presence of sub-maximal ACh receptor antagonist tubocurarine. Since the inclusion of tubocurarine caused a partial loss of neuromuscular transmission this experiment mimics the conditions in myasthenia gravis and neuromuscular blockade. To mimic conditions with pre-synaptic complication (Lambert Eaton syndrome, motor neuron disorder, polyneuropathy) the intact nerve-muscle preparations were incubated at elevated extracellular Mg^2+, which is known to suppress release of ACh from nerve terminals of motor neurons. […]
For comparison with the muscle only exposed to tubocurarine (grey trace), the two traces have been overlaid. […] For comparison, muscles only exposed to tubocurarine have been included. The dotted line indicates the recovery of force with C8 when compared to the force production before its addition. This value was used in Table 1 for evaluation of the efficacy of the different compounds in recovering force.

rat soleus muscles [3] = assay: Recovery of nerve-stimulated force in isolated rat soleus muscles exposed to 3.5 mM Mg2+ (Table 2); settings: rat soleus exposed to 3.5 mM Mg2+, force before addition 38 ± 6 % of control
rat soleus muscles [4] = assay: Tubocurarine concentration required to depress nerve-stimulated force by 50% (Kd,tub), combination with neostigmine or pyridostigmine (Table 4); settings: pre-incubation with 50 μM C8, 10 nM neostigmine or both
Protocol: Muscles from 4-week-old rats were stimulated to contract by activating the motor nerve with short duration pulses in field stimulation. Muscles contracted every 10 min for 2 s in response to 30 Hz stimulation. Four different experimental conditions were used. […] After this pre-incubation, increasing concentrations of tubocurarine were added to the bath solutions with 60 min (corresponding to six contractions) between each increase in tubocurarine. […] FIG. 5C similar to FIG. 5A but this muscle had been pre-incubated with neostigmine. […] The force integral (AUC) was determined at each tubocurarine concentration. Such AUC determinations were plotted against tubocurarine concentration for each muscle.
CIC-1 is a novel target in treatment of neuromuscular complications and it was therefore explored whether this approach for symptomatic treatment could be used in combination with existing symptomatic treatment approaches. […] To quantify the effect of compounds on tubocurarine sensitivity, the force at the different tubocurarine concentrations was determined. In plots of nerve-stimulated force against tubocurarine concentration (FIG. 5E) Kd, tub was determined by fitting four parameter sigmoidal functions to the data and the Kd, tub for the different compounds have been collected in Table 4.

[5] = Pharmacokinetic analysis of a single I.P. dose of C8 in rats (Table 6); assay type: in vivo, Sprague-Dawley rats; settings: one-bolus I.P. injection
Protocol: This part of the study was performed by Pipeline Biotech A/S (Spørring, Denmark). […] Plasma concentrations (free and bound) were determined by OnTarget Chemistry (Uppsala, Sweden, Project No.: PB243-001).
Before conducting in vivo experiments with animal models of myasthenia gravis, some pharmacokinetic details were obtained for C8 in response to one-bolus I.P. injection.

rats [6] = assay: Rotarod running performance in passive myasthenia gravis induced in rats with MAB35 monoclonal antibody; assay type: in vivo, rat; settings: rats with stable reduction in performance after MAB35, versus sham
Protocol: Prior to I.P. injection of MAB35 the animals had been familiarized to the rotarod over three training sessions distributed over two days. […] After this treatment performance was monitored every second hour. * Indicates significant different as evaluated using student t-test.
(§1) In both series of experiments, running performance was tested on a rotarod using a protocol where the rod was accelerated gradually over a 5 min period, and the running time and covered distance before falling off the rod were measured.
In experiments with MAB35, animals were first familiarized with the rotarod over two consecutive days and then injected I.P. with MAB35. After injection, rotarod performance was then again monitored regularly over the consecutive two days. […] A considerable number of animals, however, became moribund failing to walk and they had altered ventilation (rapid) and pronounced ptosis. These animals were not included in experiments.
In the last series of experiments, myasthenia gravis was mimicked in rats by inducing an immunological reaction against the motor endplate of muscle fibers using monoclonal antibody against the nicotinic ACh receptor in muscle fibers. Again the animals had been familiarized to the rotarod before the MAB35 injection. […] From FIG. 10 it can be seen that upon injection sham treatment the performance further declined.

rats [7] = assay: Rotarod running performance of rats after I.P. tubocurarine (myasthenia like phenotype); assay type: in vivo, rat; settings: C8 20 mg/kg I.P. 2 hrs before tubocurarine 0.13 mg/kg I.P.; tested 21 minutes after tubocurarine
Protocol: FIG. 9A illustrates the design of the experiments. Prior to Day One the animals had been familiarized to the rotarod in three training sessions distributed over two days.
as §1
Experiments with tubocurarine were carried out over two days, and on each day the effect of tubocurarine on running performance was tested. On the first day only tubocurarine was injected. […] On the second day, the animals were first allowed to run on the rotarod, and all animals performed normally. […] The allocation of the animals into the two groups (C8 or sham) was random and unknown to the experimenter (blinded experimental design).
In the first series of in vivo experiments, myasthenia gravis was simply mimicked by I.P. injection of tubocurarine (0.13 mg/kg) in animals that had been familiarized to running on the rotarod. On the first of two consecutive days, tubocurarine was injected I.P. and the running performance of the animal was tested 21 minutes after this injection. On the second day of experimentation, the animals first performed a test run to ensure that they were no longer affected by the tubocurarine injected the day before. […]

human muscles = settings: 150 μM C8; isolated human muscle
rat soleus muscles [8] = assay: Recovery of nerve-stimulated force in isolated rat soleus muscles with ACh receptors inhibited by 2 μM rocuronium; settings: 50 μM C8 added in the presence of 2 μM rocuronium; 8 muscles; p<0.01
Protocol: In a separate series of experiments with 8 isolated rat soleus muscles, ACh receptors were inhibited using 2 μM rocuronium, which is a clinically used neuromuscular blocking agent. Under these conditions the nerve-stimulated force was reduced to 51±5% of force before rocuronium. […] This illustrates the potential of these compounds to be used as reversal agents.

rat soleus muscle = assay type: cell-based; settings: μ-conotoxin GiiiB present

Nc1ccncc1N [3,4-AP, 3,4-diaminopyridine]
nerve-stimulated force at elevated Mg2+ compared to control (rat soleus muscles [1]): remain elevated

C[C@H](Oc1ccc(Br)cc1)C(=O)O [Compound C8, (2S)-2-(4-bromophenoxy)propanoic acid]
50 μM % change after addition (AUC force) (rat soleus muscles [2]; 50 μM compound): 16%
150 μM % change after addition (AUC force) (rat soleus muscles [2]; 150 μM compound): 23%
50 μM % change after addition (AUC force) (rat soleus muscles [3]; 50 μM compound): 13 ± 4%
100 μM % change after addition (AUC force) (rat soleus muscles [3]; 100 μM compound): 26 ± 5%
nerve-stimulated force at different tubocurarine concentrations compared to control (rat soleus muscles [4]): elevated nerve-stimulated force
AUC 0-inf_obs [5]: 205.381 µg·h/mL
AUC 0-t [5]: 203.635 µg·h/mL
C0 [5]: 24533 ng/mL
CI_obs [5]: 48.69 mL/h
Cmax [5]: 44600 ng/mL
Tmax [5]: 0.5 h
VD_obs [5]: 259.62 mL
t1/2 [5]: 3.70 h
rotarod running performance after treatment (rats [6]; C8 20 mg/kg): decline was reduced
rotarod running performance after treatment (rats [6]; C8 30 mg/kg): clear recovery of performance
increase in running performance (distance on rotarod) on the second day compared to the first day (rats [7]): around 150%
contractile force at elevated K+ and TTX (human muscles): markedly recovery
nerve-stimulated contractile force, % of force before rocuronium (rat soleus muscles [8]): 81±4%
EPP amplitude compared to control conditions (rat soleus muscle; 10 μM C8): significantly larger EPPs
EPP amplitude compared to control conditions (rat soleus muscle; 25 μM C8): significantly larger EPPs

CN(C)C(=O)Oc1cccc([N+](C)(C)C)c1 [neostigmine, reference compound]
nerve-stimulated force at different tubocurarine concentrations compared to control (rat soleus muscles [4]): elevated nerve-stimulated force
